Reference: patent US10995068B2, “Synthetic sphingolipid-like molecules, drugs, methods of their synthesis and methods of treatment” (The Regents of the University of California, priority 2015, dated 2021)

Tested on: 4F2hc, ASCT2, GLUT1
Test: Nutrient transporter internalization
Format: cell-based
Details: CD147 not affected
Text: As a proof of principle concerning the ability of C-aryl azacyclic constrained sphingolipid-like compounds, compound SH-BC-893 was examined thoroughly in a series of exemplary embodiment experiments. (The chemical structure of SH-BC-893, also referred to in the in this application as compound 5 and compound 104, and of FTY720 are shown in FIG. 51A). Results are provided below, along with a number of correlated data tables and graphs (Tables 7 and 8 and FIGS. 51-67). In embodiments, SH-BC-893 induces nutrient transporter loss and mimics starvation without the S1P receptor associated toxicity of FTY720. SH-BC-893 lacks the sphingosine-1-phosphate (S1P) receptor activity that prevents the use of FTY720 in cancer patients (FIG. 51B). […]
Light Microscopy: Brightfield and epifluorescence microscopy were conducted using a Nikon TE2000-S fluorescence microscope; confocal microscopy was performed on a Zeiss LSM780 confocal microscope or Nikon Eclipse Ti spinning disk confocal microscope. […] Co-localization was determined using JACoP plugin in ImageJ software. Macropinocytosis was measured after 16 h incubation in serum-free DMEM. p53−/−; LSL-K-RasG12D MEFs before (LSL) or after (KRasG12D) introduction of Cre were serum starved for 16 h and then treated with macropinocytosis inhibitor 5-(N-ethyl-N-isopropyl) amiloride (EIPA, 75 μM) for 1 h or SH-BC-893 for 6 h. […]

CCCCCCCCc1ccc([C@H]2CCN[C@@H]2CO)cc1.Cl [Compound 5, (2S,3R)-2-(hydroxymethyl)-3-(4-octylphenyl)Pyrrolidinium chloride]
internalization of amino acid and glucose transporters (4F2hc, ASCT2, GLUT1): triggers the selective internalization
